{"source": "paper PMC4877593", "about": "“Design and Synthesis of Potent in Vitro and in Vivo Anticancer Agents Based on 1-(3′,4′,5′-Trimethoxyphenyl)-2-Aryl-1H-Imidazole” (Scientific Reports, 2016)", "key": {"HeLa cells": {"system": "HeLa cells", "test": "Western blot analysis of cell cycle, spindle checkpoint and apoptosis proteins", "type": "cell-based, human", "description": "HeLa cells were incubated in the presence of 4o and, after different times, were collected, centrifuged, and washed two times with ice cold phosphate buffered saline (PBS). The pellet was then resuspended in lysis buffer. After the cells were lysed on ice for 30 min, lysates were centrifuged at 15000 × g at 4 °C for 10 min. The protein concentration in the supernatant was determined using the BCA protein assay reagents (Pierce, Italy). Equal amounts of protein (10 μg) were resolved using sodium dodecyl sulfate-polyacrylamide gel electrophoresis (SDS-PAGE) (Criterion Precast, BioRad, Italy) and transferred to a PVDF Hybond-P membrane (GE Healthcare). Membranes were blocked with a bovine serum albumin solution (5% in Tween PBS 1X), the membranes being gently rotated overnight at 4 °C. Membranes were then incubated with primary antibodies against Bcl-2, PARP, cdc25c, CDC20, ROCK1, MAD2, p-H2AX^Ser139, cyclin B, p-cdc2^Tyr15, […] (all from Cell Signaling), caspase-3 (Alexis), or β-actin (Sigma-Aldrich) for 2 h at room temperature. Membranes were next incubated with peroxidase labeled secondary antibodies for 60 min. All membranes were visualized using ECL Select (GE Healthcare), and images were acquired using an Uvitec-Alliance imaging system (Uvitec, Cambridge, UK). To ensure equal protein loading, each membrane was stripped and reprobed with anti-β-actin antibody."}, "Jurkat [1]": {"system": "Jurkat", "test": "In vitro antiproliferative activity (MTT), Jurkat", "type": "cell-based", "details": "Homo sapiens, tumor cell proliferation, 72 h, mean ± SE", "description": "(§1) Human T-cell leukemia (CCRF-CEM and Jurkat) and human B-cell leukemia (SEM) cells were grown in RPMI-1640 medium (Gibco, Milano, Italy). Breast adenocarcinoma (MCF7), human cervix carcinoma (HeLa), and human colon adenocarcinoma (HT-29) cells were grown in DMEM medium (Gibco, Milano, Italy), all supplemented with 115 units/mL penicillin G (Gibco, Milano, Italy), 115 μg/mL streptomycin (Invitrogen, Milano, Italy), and 10% fetal bovine serum (Invitrogen, Milano, Italy). Stock solutions (10 mM) of the different compounds were obtained by dissolving them in dimethyl sulfoxide (DMSO). Individual wells of a 96-well tissue culture microtiter plate were inoculated with 100 μL of complete medium containing 8 × 10^3 cells. The plates were incubated at 37 °C in a humidified 5% CO2 incubator for 18 h prior to the experiments. After medium removal, 100 μL of fresh medium containing the test compound at different concentrations was added to each well in triplicate and incubated at 37 °C for 72 h. The percentage of DMSO in the medium never exceeded 0.25%. This was also the maximum DMSO concentration in all cell-based assays described below. […] Different concentrations of the test compounds were added, and viability was determined 72 h later by the MTT test. For cytotoxicity evaluations in resting PBL cultures, non-adherent cells were resuspended (5 × 10^5 cells/mL) and treated for 72 h with the test compounds, as described above."}, "HT-29": {"system": "HT-29", "test": "In vitro antiproliferative activity (MTT), HT-29", "type": "cell-based", "details": "Homo sapiens, tumor cell proliferation, 72 h, mean ± SE", "description": "as §1"}, "PBL stimulated with PHA": {"system": "PBL stimulated with PHA", "test": "Cytotoxicity in PHA-stimulated peripheral blood lymphocytes", "type": "cell-based, human", "details": "72 h, PBL from healthy donors, MTT, read-out: IC50 PBLPHA", "description": "(§2) This value was almost 600 times higher than that observed against the Jurkat lymphoblastic cell line.\nas §1, with “For cytotoxicity evaluations in resting PBL cultures, non-adherent cells were resuspended (5 × 10^5 cells/mL) and treated for 72 h with the test compounds, as described above.” left out"}, "Jurkat [2]": {"system": "Jurkat", "test": "Annexin-V/PI apoptosis assay, Jurkat", "type": "cell-based, human", "details": "24 h, lowest concentration used (50 nM)", "description": "To evaluate the induction of apoptosis by compound 4o in two cell lines (HeLa and Jurkat), we used an annexin-V/PI assay. Dual staining for annexin-V and with PI permits discrimination between live cells (annexin-V^−/PI^−), early apoptotic cells (annexin-V^+/PI^−), late apoptotic cells (annexin-V^+/PI^+) and necrotic cells (annexin-V^−/PI^+).\nCell death was determined by flow cytometry of cells double stained with annexin V/FITC and PI. The Coulter Cytomics FC500 (Beckman Coulter) was used to measure the surface exposure of phosphatidyl serine on apoptotic cells according to the manufacturer’s instructions (Annexin-V Fluos, Roche Diagnostics)."}, "Jurkat [3]": {"system": "Jurkat", "test": "ROS production (H2-DCFDA), Jurkat", "type": "cell-based, human", "details": "in comparison with control cells", "description": "Figure 7 Assessment of mitochondrial membrane potential (Δψmt) and production of ROS after treatment of HeLa (Panels A,B) or Jurkat (Panels C,D) cells with compound 4o. Cells were treated with the indicated concentration of compound for 24 or 48 h and then stained with the fluorescent probe JC-1 for analysis of mitochondrial potential or H2-DCFDA for the evaluation of ROS levels. Cells were then analyzed by flow cytometry as described in the experimental section.\nIt is also well known that dissipation of mitochondrial potential is associated with mitochondrial production of ROS[38]. Superoxide anion is produced by mitochondria due to a shift from the normal 4-electron reduction of O2 to a 1-electron reduction when cytochrome c is released from mitochondria upon apoptosis. Therefore, we investigated whether ROS production increased after treatment with compound 4o. We utilized the dye 2,7-dichlorodihydrofluorescein diacetate (H2-DCFDA), which is oxidized to the fluorescent compound dichlorofluorescein (DCF) upon ROS induction."}, "[4]": {"system": "PBL not stimulated with PHA", "test": "Cytotoxicity in resting peripheral blood lymphocytes", "type": "cell-based", "details": "Homo sapiens, Lymphocyte, PBL from healthy donors, 72 h, MTT, read-out: IC50 PBLresting", "description": "as §2\nas §1, with “For cytotoxicity evaluations in resting PBL cultures, non-adherent cells were resuspended (5 × 10^5 cells/mL) and treated for 72 h with the test compounds, as described above.” left out"}, "[5]": {"details": "HeLa, 24 h, all concentrations examined"}}, "note": "Where two headings read alike, the source gives them in different places.", "data": [{"smiles": "CCOc1ccc(-c2nccn2-c2cc(OC)c(OC)c(OC)c2)cc1Cl", "note": "[Compound 4o, 2-(3′-Chloro-4′-ethoxyphenyl)-1-(3′,4′,5′-trimethoxyphenyl)-1H-imidazole]", "values": [{"measurement": "phosphorylation of γH2A.X (Ser139)", "setting": "HeLa cells; HeLa", "value": "remarkable increase"}, {"measurement": "cyclin B1 expression", "setting": "HeLa cells; HeLa, 50 nM, 24 h", "value": "marked increase"}, {"measurement": "MAD2 expression", "setting": "HeLa cells; HeLa, 24 and 48 h", "value": "substantially decreased"}, {"measurement": "expression of phosphorylated cdc2", "setting": "HeLa cells; HeLa, 24 and 48 h", "value": "strongly decreased"}, {"measurement": "PARP", "setting": "HeLa cells; HeLa, 50, 100 and 250 nM, 24 and 48 h", "value": "cleavage of PARP"}, {"measurement": "caspase-3", "setting": "HeLa cells; HeLa, 50, 100 and 250 nM, in particular after 48 h", "value": "activation of the effector caspase-3"}, {"measurement": "level of cdc20", "setting": "HeLa cells; HeLa, 24 h", "value": "remained unaffected"}, {"measurement": "total cdc25c expression", "setting": "HeLa cells; HeLa, 24 h", "value": "strongly reduced"}, {"measurement": "Bcl-2 expression", "setting": "HeLa cells; [5]", "value": "dramatic decrease"}, {"measurement": "Mcl-1 expression", "setting": "HeLa cells; [5]", "value": "dramatic decrease"}, {"measurement": "phosphorylation of PLK1", "setting": "HeLa cells; HeLa, 24 h, effect disappeared at 48 h", "value": "marked increase"}, {"measurement": "ROCK1 cleavage", "setting": "HeLa cells; HeLa, 48 h", "value": "cleaved bands of ROCK1 appeared"}, {"measurement": "IC50", "setting": "Jurkat [1]", "value": "0.0009 ± 0.0002", "unit": "µM"}, {"measurement": "IC50", "setting": "HT-29", "value": "0.0004 ± 6e-05", "unit": "µM"}, {"measurement": "IC50", "setting": "PBL stimulated with PHA; Homo sapiens, Lymphocyte", "value": "~0.5", "unit": "µM"}, {"measurement": "IC50", "setting": "PBL stimulated with PHA", "value": "0.52 ± 0.04", "unit": "µM"}, {"measurement": "annexin-V positive cells", "setting": "Jurkat [2]", "value": "significant accumulation of annexin-V positive cells"}, {"measurement": "ROS production (H2-DCFDA)", "setting": "Jurkat [3]", "value": "induced the production of large amounts of ROS"}, {"measurement": "IC50", "setting": "[4]", "value": "> 10", "unit": "µM"}]}]}
